Experimental data reported in patent publication US7045520B2, “Opioid receptor active compounds” (The Curators of the University of Missouri, priority 2002, dated 2006).
pKi: −log10 of the molar value.

Legend:
[1] = molecular target: T1, murine δ opioid receptor (Mus musculus, UniProt P32300); assay: biochemical; assay type: binding; conditions: for Receptor Affinity (relative to 100%) δ: single concentration, 20 μM
T1 construct: expressed in transfected cells
Protocol: (§1) Competitive Binding Assays. Human embryonic kidney (HEK) 293 cells (ATCC CRL, 1573) were cultured at 37° C. in Dulbecco's modified Eagle's medium supplemented with 10% fetal bovine serum, 100 units/ml penicillin and 100 μg/ml streptomycin sulfate. HEK293 cells were transfected by electroporation with expression plasmids encoding murine δ or μ opioid receptors tagged at the amino termini with the FLAG-tag epitope or the human κ receptor. Cells stably expressing opioid receptors were selected in media containing 0.75 mg/ml G418 (Life Technologies, Gaithersburg, Md.).
(§2) Cell membrane preparations were collected from the stable transfectants described above. Opioid receptor binding assays were conducted in duplicate on membrane preparations that had been resuspended in 50 mM Tris-HCL, pH 7.5, utilizing [9-^3H]bremazocine (specific activity 2.6 Ci/mmol, NEN, Boston, Mass.) as radioligand and 10 μM cyclazocine to define non-specific binding. Following a one-hour incubation on ice, binding assays were terminated by filtration through Whatman GF/B filters. Filters were soaked in Ecoscint liquid scintillation solution (National Diagnostics, Manville, N.J.) and filter-bound radioactivity was measured using a Packard Tri-Carb 2100 TR liquid scintillation analyzer. Receptor binding data were analyzed by non-linear regression of saturation and competition curves using Prism 3.0 software (GraphPad Software, San Diego, Calif.). Protein concentrations were determined with the Bio-Rad protein microassay (Hercules, Calif.) using bovine serum albumin as standard.
(§3) The binding affinities for compounds listed in Table 1 (4a-c and 5a-c) were determined by competition of [9-^3H]bremazocine binding to membranes prepared from stable cells expressing either the cloned μ, δ, or κ opioid receptors as described in the above sections.
(§4) To determine the selectivity profile of compound 5c toward the cloned opioid receptors, competitive binding assays were performed in the presence of increasing concentrations of compound 5c.
(§5) Preliminary Test for Agonist vs. Antagonist Activity. A simple method to determine whether a compound is acting as an agonist or antagonist at a G-Protein coupled receptor is to perform the competitive binding assay in the presence of 100 mM NaCl. The presence of NaCl in the resuspension buffer will result in about a 4 fold decrease in binding affinity for an opioid receptor agonist, whereas an antagonist will show about a 1 fold increase in receptor affinity.

[2] = tested on: murine δ opioid receptor; assay: biochemical; assay type: binding; conditions: for Selectivity for δ receptor (δ/κ): ratio of receptor affinities δ to κ; for Selectivity for δ Receptor (δ/μ): ratio of receptor affinities δ to μ
Protocol: as §1, §2, §3, §4, §5

[3] = molecular target: T2, human κ receptor (Homo sapiens, UniProt P41145); assay: Competitive binding assay, [9-3H]bremazocine, membranes of stably transfected HEK293 cells; conditions: for Receptor Affinity (relative to 100%) κ: single concentration, 20 μM; for pKi: average observed, from IC50 by Cheng-Prusoff, read-out: Inhibition Constant, Ki κ
T2 construct: expressed in transfected cells
Protocol: as §1, §2, §3, §4, §5

[4] = molecular target: T3, murine μ opioid receptor (Mus musculus, UniProt P42866); assay: as above; conditions: for Receptor Affinity (relative to 100%) μ: single concentration, 20 μM; for pKi: average observed, from IC50 by Cheng-Prusoff, read-out: Inhibition Constant, Ki μ
T3 construct: expressed in transfected cells
Protocol: as §1, §2, §3, §4, §5

[5] = Inhibition Constant, Ki δ, average observed, from IC50 by Cheng-Prusoff
[6] = 100 mM NaCl in resuspension buffer

Structure (SMILES)	Receptor Affinity (relative to 100%) δ [1] [%]	Selectivity for δ receptor (δ/κ) [2]	Selectivity for δ Receptor (δ/μ) [2]	Receptor Affinity (relative to 100%) κ [3] [%]	Receptor Affinity (relative to 100%) μ [4] [%]	melting point [°C]	pKi [1, 5]	pKi [3]	pKi [4]	increase in binding affinity in the presence of NaCl, δ [1, 6] [fold]	pKi ([1]; binding affinity for the δ opioid receptor, summary of Table 3)	agonist vs. antagonist activity, δ ([1]; preliminary test, 100 mM NaCl)	selectivity among the three receptor subtypes ([2]; at 20 μM, μ, δ, κ)	increase in binding affinity in the presence of NaCl, κ [3, 6] [fold]	agonist vs. antagonist activity, κ ([3]; preliminary test, 100 mM NaCl)	increase in binding affinity in the presence of NaCl, μ [4, 6] [fold]	agonist vs. antagonist activity, μ ([4]; preliminary test, 100 mM NaCl)
COc1cccc(-n2cnnc2-c2ccc(C(C)(C)C)cc2)c1 [Compound 4a, 1-{3-[4-(tert-Butyl)phenyl]-(1,2,4-triazol-4-yl)}-3-methoxybenzene]	31	1.72	2.21	18	14	118.2 to 118.8	–	–	–	–	–	–	–	–	–	–	–
CN(C)c1nnc(-c2ccc(C(C)(C)C)cc2)n1-c1cccc(O)c1 [Compound 5d, 1-{3-[4-(tert-butyl)phenyl]-5-N,N-dimethylamino-(1,2,4-triazol-4-yl)}-3-phenol]	–	–	–	–	–	–	6.52	< 5.00	5.40	–	–	–	–	–	–	–	–
CC(C)(C)c1cccc(-c2nncn2-c2cccc(O)c2)c1 [Compound 5c, 1-{3-[3-(tert-Butyl)phenyl]-(1,2,4-triazol-4-yl)}-3-phenol]	39	0.46	0.54	85	72	242.5 to 243.5	6.87	5.86	6.35	~1	~7.00	antagonist	non-selective	~1	antagonist	~1	antagonist
COc1cccc(-n2cnnc2-c2cc(C(C)(C)C)ccc2OC)c1 [Compound 4b, 1-{3-[5-(tert-Butyl)-2-methoxyphenyl](1,2,4-triazol-4-yl)}-3-methoxybenzene]	8	0.30	0.27	27	20	119.5 to 120	–	–	–	–	–	–	–	–	–	–	–
COc1cccc(-n2cnnc2-c2cccc(C(C)(C)C)c2)c1 [Compound 4c, 1-{3-[3-(tert-Butyl)phenyl]-(1,2,4-triazol-4-yl)}-3-methoxybenzene]	2	0.07	0.11	27	19	175 to 175.5	–	–	–	–	–	–	–	–	–	–	–
CC(C)(C)c1ccc(-c2nncn2-c2cccc(O)c2)cc1 [Compound 5a, 1-{3-[4-(tert-Butyl)phenyl]-(1,2,4-triazol-4-yl)}-3-phenol]	21	0.44	1.17	48	18	–	–	–	–	–	–	–	–	–	–	–	–
CC(C)(C)c1ccc(O)c(-c2nncn2-c2cccc(O)c2)c1 [Compound 5b, 1-{3-[5-(tert-Butyl)-2-hydroxyphenyl]-(1,2,4-triazol-4-yl)}-3-phenol]	~0	–	–	20	21	–	–	–	–	–	–	–	–	–	–	–	–
